Data set [1] is described as follows: 14-day rat toxicology study. Particulars: for NOAEL at 14 days: in vivo, 14-day daily administration, solution in Labrasol. The data set is classed as in vivo. On the procedure:
(§1) The compound was assessed in 14-day rat and dog toxicology studies with daily administration of Compound 9 as a solution in HPBCD in dogs and Labrasol® in rats.
(§2) The NOAEL in rats was 3 mg/kg (females) and 22.5 mg/kg (males), and was 2.5 mg/kg in dogs. […] A single observation of mortality occurred in one female rat at the high dose in a toxicokinetic study which was suspected to have been related to exaggerated pharmacology.

In data set [2] the test system is rats. Description: 14-day rat toxicology study. The data set is classed as in vivo. As for the experimental part: as §1, §2
Data set [3] is described as follows: toxicology and safety pharmacology studies across species. Type of data set: in vivo. As for the experimental part: as §1
Expected risks are those identified during the toxicology and safety pharmacology studies for Compound 9 and clinical study Example 2. […] This will be monitored in the clinical study using two scales, one designed to monitor “sleepiness” (Stanford Sleepiness Scale) and one to monitor deeper sedation (Modified Observer's Assessment of Alertness/Sedation).

Data set [4] relates to healthy volunteers. Briefly: Phase I single ascending dose (SAD) study: MOAA/S sedation and adverse events. Type of data set: in vivo, human. The text has this:
Example 2. A Phase I, Double-Blind, Placebo-Controlled, Single Ascending Dose Study to Determine the Maximum Tolerated Dose (MTD), Pharmacokinetics and Pharmacodynamics of Compound 9 Oral Solution in Healthy Volunteers and the Safety, Tolerability, and Pharmacokinetics of Compound 9 in Subjects with Essential Tremor
This four-part study will assess the effects of a single dose of Compound 9. The initial part of the study is a double-blind, placebo-controlled single ascending dose (SAD) design in healthy, adult volunteers with the objective of identifying the maximum tolerated dose (MTD) and pharmacokinetic (PK) profiles of Compound 9 Oral Solution. Escalation to the next dose will be undertaken only after safety and PK data have been reviewed by the Safety Review Committee (SRC) and agreement reached that it is safe to increase the dose. The SRC will not receive any unblinded PK data unless it is agreed upon by the SRC to unblind a subject and/or cohort based on the completed safety review.
In each of the SAD cohorts, subjects will be randomly assigned to receive either Compound 9 (six subjects) or placebo (two subjects) in a blinded manner. Cohort 1 will receive Dose 1, Cohort 2 will receive Dose 2, and so on. With the exception of the Food cohort, study drug will be administered in a fasting state (no food and only water for the previous 12 hours) and a standard Phase 1 unit diet will be administered beginning approximately four to five hours after dosing. […]
The MOAA/S allows exploration of deeper sedation states than the SSS. […] If a MOAA/S score of 3 or less (≤3) is observed, confirm the score by waiting approximately 10 minutes and readministering the MOAA/S assessment. […]

Data set [5] is described as follows: 14-day dog toxicology study. The data set is classed as in vivo. To be noted: dog, in vivo; dogs; 14-day daily administration, solution in HPBCD. On the procedure: as §1, §2
For data set [6], the system named is dogs. Description: 14-day dog toxicology study. Type of data set: in vivo. On the procedure:
as §1, §2

For data set [7], the system named is healthy volunteers. Description: Phase I multiple ascending dose (MAD) study: MOAA/S sedation. The data set is classed as in vivo, human. An excerpt: Example 3. Phase I, Double-Blind, Placebo-Controlled, Multiple Ascending Dose Study to Determine Safety, Tolerability, Pharmacokinetics and Pharmacodynamics of Compound 9 Oral Solution in Healthy Volunteers
This study comprises a double blind, placebo-controlled multiple ascending dose (MAD) study followed by an open-label drug-drug interaction study (DDI) without placebo in healthy, adult volunteers. Four cohorts of 12 subjects each will be recruited for a total of 48 subjects. Subjects in Cohorts 1, 2, and 3 will participate in the multiple-ascending-dose (MAD) part of the study, and subjects in Cohort 4 will participate in the drug-drug-interaction (DDI) part of the study.
The objective of the MAD part of the study is to determine the safety, tolerability, pharmacokinetics (PK), and pharmacodynamic (PD) profile of seven days of dosing with Compound 9 Oral Solution (henceforth referred to as Compound 9).
The MOAA/S allows exploration of deeper sedation states than the SSS. All time points are relative to the time of dosing. If the planned time point is between the hours of 22:00 h and 08:00 h each day or if the subject has been discharged before the +72 hour time point, the assessment need not be conducted at that time point. If a subject is difficult to awaken, an additional MOAA/S assessment may be performed at the discretion of the PI. Any MOAA score of 3 or less must be repeated. […]

The subject of data set [8] is seizures arising from chemoconvulsants, proconvulsant stimuli, and genetic predisposition. Briefly: preclinical anticonvulsant models. The data set is classed as in vivo, rodents. Particulars: oral. As for the experimental part: FIGS. 3A and 3B depict exemplary preclinical anticonvulsant efficacy in rodents.
as §1

Setting [9] is: male and female rats, non-adverse, reversible, without microscopic correlates.

SMILES strings stand for the structures.

Take `C[C@@]1(O)CC[C@H]2[C@H](CC[C@@H]3[C@@H]2CC[C@]2(C)[C@@H](C(=O)Cn4cc(C#N)cn4)CC[C@@H]32)C1` [Compound 9]: in data set [1] (plasma, 22.5 mg/kg, male rat 14-day toxicology, read-out: AUC at lowest NOAEL exposure in toxicology studies), the AUC at 14 day was determined as 5050 ng·h/mL. For the same compound, the NOAEL at 14 days in data set [1] (rat, female rats) stood at 3 mg/kg; in data set [1] (rat, male rats) it was 22.5 mg/kg; in data set [5], 2.5 mg/kg. For the same compound, the Cmax in data set [1] (rat, plasma, 3 mg/kg, female rats, Day 14, read-out: estimated human Cmax based on the lowest NOAEL Day 14 Cmax in female rats) was 400 ng/mL. Further, the mortality result in data set [2] (female rat, high dose, toxicokinetic study, suspected related to exaggerated pharmacology) is on record as “one”. Besides, the “increases in AST/ALT” value in data set [2] (high dose male and female rats) was below 2 fold. Also, in data set [2] (high dose male and female rats), the microscopic liver finding entry is “increased incidence of minimal hepatocellular vacuolation”. The APTT entry in data set [2] (setting [9]) is given as “slight prolongation of APTT”. Further, in data set [2] (setting [9]), the “urine pH” value is “slight increase in urine pH”. In addition, the “adverse effects in main toxicology study” value in data set [2] (rats) and in data set [6] was “no adverse effects” each time. Further, the “most common drug-related effect” value in data set [3] (across species, studies and doses) was “dose-related sedation”. The “manifestations of exaggerated pharmacology” value in data set [3] (nonclinical studies) is “sedation and ataxia”. Further, the “subjects with MOAA/S ≤2” value in data set [4] (55 mg single dose, stopping criteria not met) was found to be 2 subjects; in data set [4] (66 mg single dose, stopping criteria met), 2 subjects. Also, the “adverse events possibly or probably related to the study drug” value in data set [4] (five SAD cohorts dosed, oral solution, study ongoing) is “mild drowsiness, mild confusion, somnolence, headache, orthostatic heart rate increase, aloofness, anxiety, sore throat and mild abdominal discomfort”. Further, the core body temperature result in data set [6] is recorded as “transient decreases in core body temperature”. Also, the heart rate result in data set [6] is “transient increases in heart rate”. Moreover, the renal microscopic finding entry in data set [6] (well-documented vehicle effect) is listed as “minimal renal tubular vacuolation”. Moreover, the “subjects with MOAA/S scores of 1 or 2 (deep sedation)” value in data set [7] (35 mg group, all at 1 hour post-dose) is “two”. In addition, in data set [7] (by 4 hours post-dose), the “mean MOAA/S” value was “approached baseline values”. Further, the anticonvulsant activity entry in data set [8] is “orally active in preclinical anticonvulsant models, and suppressed seizures”.

Usually AUC stands for the area under the concentration-time curve, a measure of exposure. As a reminder, the NOAEL is the highest tested level that showed no adverse finding. One may read the Cmax as the maximum level reached in the sampled fluid or tissue.

Source of the values: US10940156B2, “Neuroactive steroids, compositions, and uses thereof” (Sage Therapeutics, Inc., priority 2016, dated 2021).
